Data: patent US12403184B2, “Compositions and methods for treating neurodegenerative disroders” (priority 2018, dated 2025)
Where no end group is shown, it is not given here.

Key:
[1] = target: Drp1 (Homo sapiens, UniProt O00429); assay: Drp1 GTP hydrolysis in vitro; format: biochemical
Text: Drp1 GTP hydrolysis was monitored as a function of time as described previously.

[2] = 1 mg/kg/day, administered subcutaneously
[3] = target: T1, Drp1/ATAD3A (Mus musculus, UniProt Q925I1); assay: Immunoprecipitation of Drp1/ATAD3A binding in mouse striatal cells; format: cell-based
T1 construct: The total lysates of cells or mouse striatum were subject to IP analysis; endogenous in cells; host or cells: HdhQ7 / HdhQ111 mouse striatal cells; wild-type mouse striatal cells exposed to 3-NP
T1 sequence (Q925I1 2-591 limits assumed): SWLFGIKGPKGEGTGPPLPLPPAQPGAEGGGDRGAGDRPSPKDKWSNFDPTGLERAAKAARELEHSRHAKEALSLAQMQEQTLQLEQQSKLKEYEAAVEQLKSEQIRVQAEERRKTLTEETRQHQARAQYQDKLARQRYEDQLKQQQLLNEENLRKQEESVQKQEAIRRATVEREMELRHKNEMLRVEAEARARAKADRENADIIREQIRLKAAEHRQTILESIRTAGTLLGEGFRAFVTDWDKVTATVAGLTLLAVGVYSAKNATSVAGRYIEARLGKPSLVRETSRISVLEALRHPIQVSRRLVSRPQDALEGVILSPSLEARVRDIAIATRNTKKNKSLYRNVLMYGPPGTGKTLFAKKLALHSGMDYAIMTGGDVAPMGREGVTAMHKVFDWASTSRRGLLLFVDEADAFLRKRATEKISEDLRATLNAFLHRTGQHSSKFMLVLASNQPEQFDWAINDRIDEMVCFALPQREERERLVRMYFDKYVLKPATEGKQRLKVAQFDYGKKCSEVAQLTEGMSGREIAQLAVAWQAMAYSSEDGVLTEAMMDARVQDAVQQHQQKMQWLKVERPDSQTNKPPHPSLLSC
Experimental: (§1) Cells and mouse brain tissues were harvested and lysed in total lysis buffer ([…], pH 7.9, […], […], 1% Triton X-100, and protease inhibitor cocktail) for 30 mins on ice and centrifuged at 12,000×g for 10 min at 4° C. The supernatants were incubated with the indicated primary antibodies or control IgG (sc-2025 and sc-2027, Santa Cruz Biotechnology) overnight at 4° C., followed by incubation with protein A/G beads (sc-2003, Santa Cruz Biotechnology) for 2 h at 4° C. The immunoprecipitates were washed with lysis buffer three times for a total of 30 min and then subject to WB analysis.

[4] = target: T2, ATAD3A (Mus musculus, UniProt Q925I1); assay: ATAD3A dimerization by western blot, Neuro2A cells; format: cell-based; conditions: Neuro2A cells exposed to 3-NP (5 mM, 7 hours), DA1 1 μM overnight
T2 construct: endogenous in cells; host or cells: Neuro2A cells
T2 sequence (Q925I1 1-591): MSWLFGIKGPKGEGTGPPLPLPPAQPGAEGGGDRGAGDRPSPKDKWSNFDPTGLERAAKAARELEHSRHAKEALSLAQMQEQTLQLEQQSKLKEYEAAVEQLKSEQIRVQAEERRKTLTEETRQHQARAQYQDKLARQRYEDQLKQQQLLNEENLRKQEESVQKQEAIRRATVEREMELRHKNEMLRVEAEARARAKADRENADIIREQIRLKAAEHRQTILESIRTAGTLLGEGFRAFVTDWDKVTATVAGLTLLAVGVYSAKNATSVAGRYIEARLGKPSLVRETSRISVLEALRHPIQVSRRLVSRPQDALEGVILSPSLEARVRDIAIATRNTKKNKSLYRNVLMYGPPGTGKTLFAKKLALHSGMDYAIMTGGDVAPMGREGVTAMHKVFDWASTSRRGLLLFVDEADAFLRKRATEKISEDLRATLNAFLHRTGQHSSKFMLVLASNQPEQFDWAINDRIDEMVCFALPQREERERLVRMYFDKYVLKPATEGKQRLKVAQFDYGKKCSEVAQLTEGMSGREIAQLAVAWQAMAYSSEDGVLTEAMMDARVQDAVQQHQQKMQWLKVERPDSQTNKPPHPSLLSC
Experimental: To analyze dimerization of ATAD3A under non-reducing conditions, the cells or tissues were harvested and lysed with total lysates buffer. An equal amount of proteins was subject to 8% SDS-PAGE analysis in the presence or absence of β-mercaptoethanol (β-ME). For in vitro BMH crosslinking, the cell lysates were incubated with 1 mM BMH at r.t. for up to 25 min and quenched with 0.1% β-ME, followed by SDS-PAGE analysis. For in-vivo crosslinking, the cells were treated with cell-permeable crosslinker BMH (1 mM) for 20 min at 37° C. After crosslinking, the cells were quenched in PBS with 0.1% β-ME. For DSP crosslinking, the cells were treated with cell-permeable crosslinker for 5 min at 37° C., followed by quenching and washing with 10 mM Glycine in PBS. For formaldehyde (FA) crosslinking, the cells were incubated with PBS buffer containing 1% FA for 20 min at r.t., and the crosslinking reaction was terminated by washing in PBS containing 100 mM glycine. The cells were then lysed and subject to 8% SDS-PAGE analysis. For DTSSP crosslinking of proteins in mitochondrial fractions, isolated mitochondria samples were suspended in the mitochondrial lysis buffer (250 mM sucrose, 20 mM HEPES-NaOH, pH 7.5, 10 mM KCl, 1.5 mM MgCl2, 1 mM EDTA, 1 mM EGTA and protease inhibitor). An equal amount of crude mitochondria was incubated at 30° C. in the presence of 0.5 mM DTSSP. […]

[5] = target: T1, Drp1/ATAD3A; assay: Immunoprecipitation of Drp1/ATAD3A binding in striatal extracts of treated HD R6/2 mice; format: in vivo; conditions: striatal extracts of HD R6/2 mice, 1 mg/kg/day from 6 to 12 weeks
Experimental: as §1
Systemic peptide treatment in HD mice. All randomization and peptide treatments were prepared by an experimenter not associated with behavioral and neuropathology analysis. Male R6/2 mice (Tg) and their age-matched wild-type littermates (Wt) (6-week-old) were implanted with a 28-day osmotic pump (Alzet, Cupertino CA, Model 2004) containing TAT control peptide or DA1 peptide, which delivered peptides at a rate of 1 mg/kg/day. Male YAC128 mice (Tg) and their age-matched wild-type littermates (WT) were treated with TAT control peptide or DA1 peptide (1 mg/kg/day) by Alzet osmotic pump starting from the age of 3 months. The pump was replaced once every month.

[6] = test system: mitochondrial fusion and fission-related proteins; assay: Total protein levels of mitochondrial dynamics proteins by western blot; format: cell-based
Experimental: Protein concentration was measured by protein assay dye reagents (Bio-rad). The protein was resuspended in Laemmli buffer, loaded on SDS-PAGE, and transferred onto nitrocellulose membranes. Membranes were probed with the indicated antibodies, followed by visualization with ECL. Representative blots have been cropped for presentation.

Drp1, sequence (O00429 whole entry): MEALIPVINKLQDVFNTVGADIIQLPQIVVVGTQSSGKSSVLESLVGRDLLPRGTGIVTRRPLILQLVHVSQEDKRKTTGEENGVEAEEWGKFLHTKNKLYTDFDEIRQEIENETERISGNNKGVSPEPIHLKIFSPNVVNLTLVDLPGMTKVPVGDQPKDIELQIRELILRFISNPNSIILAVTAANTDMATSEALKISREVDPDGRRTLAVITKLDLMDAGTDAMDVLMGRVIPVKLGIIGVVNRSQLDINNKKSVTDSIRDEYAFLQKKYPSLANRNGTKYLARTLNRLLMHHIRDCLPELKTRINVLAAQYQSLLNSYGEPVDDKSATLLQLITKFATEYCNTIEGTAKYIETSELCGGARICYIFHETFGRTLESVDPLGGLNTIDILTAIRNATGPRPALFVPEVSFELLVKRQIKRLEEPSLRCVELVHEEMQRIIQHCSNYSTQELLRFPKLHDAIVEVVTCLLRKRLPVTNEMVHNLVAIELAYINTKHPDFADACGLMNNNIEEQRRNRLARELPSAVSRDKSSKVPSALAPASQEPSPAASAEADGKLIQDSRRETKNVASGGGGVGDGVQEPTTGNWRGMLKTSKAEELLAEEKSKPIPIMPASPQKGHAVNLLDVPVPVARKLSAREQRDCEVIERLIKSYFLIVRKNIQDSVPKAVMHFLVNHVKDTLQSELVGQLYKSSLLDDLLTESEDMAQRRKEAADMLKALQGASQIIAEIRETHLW

YGRKKRRQRRRGGEDKRKT-NH2 [DA1, YGRKKRRQRRR-GG-EDKRKT-NH2]
Drp1 oligomerization-induced GTPase activity [1]: no effects
brain entry [2]: entered the brain
binding of Drp1/ATAD3A ([3]; HdhQ111 cells, peptide 1 μM/day for 4 days, vs TAT): significantly reduced
binding of Drp1/ATAD3A ([3]; wildtype mouse striatal cells exposed to 3-NP (5 mM for 4 hours), DA1 1 μM overnight): significantly reduced
dimerization of ATAD3A [4]: abolished
binding of Drp1/ATAD3A [5]: significantly reduced
other mitochondrial fusion and fission-related proteins (total protein levels) [6]: did not affect
